The values that follow come from patent US11446304B2, “CDC-7-inhibitor compounds and use thereof for the treatment of neurological conditions” (CONSEJO SUPERIOR DE INVESTIGACIONES CIENTIFICAS (CSIC), priority 2017, dated 2022).

Data set [1] addresses human recombinant CDC7/DBF4 (Homo sapiens, UniProt O00311). The data set is described as follows: CDC7 inhibition measurement (LanthaScreen Eu kinase binding, FRET). The settings on record: CDC7/DBF4 0.5 nM, 60 min at room temperature; read-out: CDC7 Lantha ™ CI50. From the text: The LanthaScreen Eu kinases inhibition assay uses an Alexa marker Fluor™ that binds to a kinase and is detected by the addition of an Eu-marked antibody. The binding of the marker and the antibody to the kinase results in a high degree of FRET, while the displacement of the marker by an inhibitor results in a loss of FRET. Unlike many other kinase activity tests, this is a simple mix and read test, with no developmental stages. This test method has been developed by Life Technologies and identifies competitive ATP kinase inhibitors, making them suitable for the detection of any compound that binds to the ATP site.
The compounds are evaluated at 1% DMSO (final) in the well. A mixture of human recombinant CDC7/DBF4 (0.5 nM), Eu-antiGST antibody (2 nM) and AlexaFluor marker (1 nM) has been used in a buffer of 50 mM HEPES pH 7.5, 0.01% BRIJ-35, 10 mM MgCl2, 1 mM EGTA in white plates of […], low volume, coded (Greiner cat. #784207), 160 nL (100×100% DMSO compound), 3.84 μL (buffer with CDC7/DBF4), 8.0 μL (antibody), 4.0 μL (marker) are added. Agitate 30 s and incubate at room temperature for 60 min. Then measure the fluorescence in the plate reader and analyze the data (Table 1).
(In TR-FRET formats the signal depends on donor and acceptor labels being close together.)

Data set [2] is described as follows: PAMPA blood-brain barrier permeation (porcine brain lipid). The format is in vitro ADME. The settings on record: for Papp at 2.5 h: PAMPA-BHE, PBS pH 7.4/EtOH 70:30, 2 h 30 min at 25° C., mean ± SD, read-out: Pe; for PAMPA prediction of central nervous system (CNS) penetration: from Pe in PAMPA-BHE. From the text:
An essential requirement for drugs for the treatment of neurodegenerative diseases is the ability to cross the blood-brain barrier (BBB), as otherwise they could not act on the target of interest. Therefore, for compounds that are not permeable or located in the area of uncertainty, it may be necessary to properly convey a pharmaceutical formulation through methods known to an expert in the field, such as encapsulation. This capability can be predicted in vitro using a method known by the acronym PAMPA (Parallel Artificial Membrane Permeability Assay) described by Di et al (Di, L.; Kerns, E. H.; Fan, K.; McConnell, O. J.; Carter, G. T. Eur. J. Med. Chem. 2003, 38 (3), 223-232) and which has subsequently been fine-tuned in our research group. This method allows predicting the effective permeability through artificial membranes by means of a passive diffusion process.
First of all, it is necessary to validate the method, for which 10 commercial compounds are used whose penetration capacity in the central nervous system (CNS) is known and which are to be specified below, obtaining in this case a good linear correlation between the experimental permeability values (Pe) and those described (FIG. 1). This correlation line obtained following the pattern described in the bibliography allows establishing the limits to predict whether or not a compound can cross the blood-brain barrier. Thus, a compound is considered BBB permeable (SNC+) if it has a permeability>4.48×10^−6 cm-s^−1.
For the procedure, between 3-5 mg of caffeine, desipramine, enoxacin, hydrocortisone, ofloxacin, piroxicam and testosterone, 12 mg of promazine and 25 mg of atenolol and verapamil were taken and dissolved in EtOH (1000 μL). 100 μL of these solutions were taken and EtOH (1400 μL) and phosphate buffer (PBS) pH=7.4 (3500 μL) were added in order to achieve a final EtOH concentration of 30% v/v in solution. Finally, the dissolutions were filtered.
On the other hand, a PBS/EtOH solution (70:30) was added to each well of the acceptance plate (180 μL). The donor plate was impregnated with a porcine brain lipid solution (4 μL) dissolved in dodecane (20 mg mL^−1). After 5 min, dissolution of each compound was added to this plate (180 μL).
Of the compounds 1 to 10 evaluated, 1-2 mg were taken and dissolved in EtOH (1500 μL) and phosphate buffer (PBS) pH=7.4 (3500 μL), filtered and added to the donor plate. With these solutions, the wavelengths at which the compounds absorb are determined and the initial absorbance levels at these wavelengths are measured using a UV absorbance reader. Each sample was analyzed from two to five wavelengths, in three wells and in two independent experiments.
The donor plate was then deposited on the acceptor forming a kind of “sandwich” and incubated for 2 hours and 30 minutes at 25° C. In this way, the compounds will pass from the donor plate to the acceptor plate through the porcine brain lipid by passive diffusion. After that time, the donor plate is carefully removed and the concentration and final absorbance of both commercial and synthesized compounds is determined. The results obtained are expressed as the mean of the measurements [standard deviation (SD)] of the different experiments carried out and are shown in table 2.

The target in data set [3] is T1, human recombinant CDC7 (Homo sapiens, UniProt O00311).
T1 construct: purchased Promega V5089
The data set is described as follows: CDC7 inhibition measurement (ADP-Glo technology). The format is biochemical. The settings on record: ATP 10 μM, 60 min at room temperature; read-out: CDC7 ADP-Glo ™ CI50. The method, then:
The method used is a non-radioactive enzyme inhibition assay using human recombinant CDC7. It is based on luminometric quantification of inhibition using the ADP-Glo™ Kinase Kit. In this test the luminescent signal correlates positively with the amount of adenosine diphosphate (ADP) and the activity of the kinase. […]
CDC7 enzyme inhibition studies were conducted using the promega kit: ADP-Glo™ Kinase Assay+CDC7/DBF4 Kinase Enzyme System (Catalogue No. V5089). ATP and other reagents were purchased in Sigma-Aldrich (St. Louis, Mo.). The trials were performed in a buffer solution using 96-well plates. The compound to be tested (5 μL, 40 μM dissolved in DMSO 4%) was added to each well followed by the enzyme (5 μL, 25 ng/well), ATP (5 μL, final concentration in well 10 μM) and PDKtidE (5 μL, 4 μg/well). It was then incubated for 60 minutes at room temperature and the reagent ADP-Glo™ (20 μL) was added and incubated again for 40 min at room temperature. After incubation, the kinase detection agent (40 μL) was added and incubated for 30 min at room temperature. Finally, the luminescence (integration time of 0.5-1 sec) was measured using a POLARstar Optima multimode reader polarimeter. Inhibition activities were calculated as a function of maximum activity, measured in the absence of inhibitor.

T1 sequence (O00311 whole entry): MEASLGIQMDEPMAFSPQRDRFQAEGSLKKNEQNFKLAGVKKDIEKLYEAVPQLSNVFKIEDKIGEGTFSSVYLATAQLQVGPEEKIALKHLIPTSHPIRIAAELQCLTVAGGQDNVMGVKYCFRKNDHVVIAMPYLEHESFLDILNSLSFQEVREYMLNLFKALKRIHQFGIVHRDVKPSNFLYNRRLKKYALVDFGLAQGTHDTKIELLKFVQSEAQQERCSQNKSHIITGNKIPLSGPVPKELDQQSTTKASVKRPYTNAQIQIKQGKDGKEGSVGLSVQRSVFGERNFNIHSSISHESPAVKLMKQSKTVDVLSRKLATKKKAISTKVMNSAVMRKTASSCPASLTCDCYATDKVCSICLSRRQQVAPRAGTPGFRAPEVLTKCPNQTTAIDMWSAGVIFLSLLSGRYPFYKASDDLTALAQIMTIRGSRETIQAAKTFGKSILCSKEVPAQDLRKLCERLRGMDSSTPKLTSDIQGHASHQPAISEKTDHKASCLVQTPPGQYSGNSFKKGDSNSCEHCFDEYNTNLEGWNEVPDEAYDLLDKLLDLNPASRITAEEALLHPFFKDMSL
T1 sequence (Q9UBU7 whole entry partner): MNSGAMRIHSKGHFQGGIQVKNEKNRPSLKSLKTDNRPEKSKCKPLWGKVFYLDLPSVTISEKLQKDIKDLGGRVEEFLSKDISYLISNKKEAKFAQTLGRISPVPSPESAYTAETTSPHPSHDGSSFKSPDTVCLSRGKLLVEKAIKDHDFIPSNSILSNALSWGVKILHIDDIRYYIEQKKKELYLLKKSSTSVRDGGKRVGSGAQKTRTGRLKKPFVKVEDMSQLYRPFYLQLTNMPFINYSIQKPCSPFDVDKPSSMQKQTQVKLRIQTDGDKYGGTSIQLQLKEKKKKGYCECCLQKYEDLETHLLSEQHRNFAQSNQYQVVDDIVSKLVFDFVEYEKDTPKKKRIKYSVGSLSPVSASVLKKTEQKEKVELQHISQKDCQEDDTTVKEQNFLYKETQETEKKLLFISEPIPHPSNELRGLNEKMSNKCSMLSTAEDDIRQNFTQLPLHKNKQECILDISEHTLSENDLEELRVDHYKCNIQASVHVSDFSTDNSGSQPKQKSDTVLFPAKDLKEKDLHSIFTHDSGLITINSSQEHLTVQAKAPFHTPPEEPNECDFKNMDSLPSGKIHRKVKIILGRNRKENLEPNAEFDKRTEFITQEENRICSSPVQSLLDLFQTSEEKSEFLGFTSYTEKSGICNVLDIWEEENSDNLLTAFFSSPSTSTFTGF
Chain of human recombinant CDC7/DBF4 (O00311 whole entry): as the sequence (O00311 whole entry) above
Chain of human recombinant CDC7/DBF4 (Q9UBU7 whole entry partner): as the sequence (Q9UBU7 whole entry partner) above

Turning to `c1ccc2c(CSc3ncnc4[nH]cnc34)cccc2c1` [Compound 2, 6-((Naphthalene-1-ylmethyl)thio)-9H-purine], the melting point – broadly, the temperature of the solid-liquid transition – lay in the range of 221 to 222 °C. The IC50 in data set [1] was determined as 347 nM. For the same molecule, in data set [2], the Papp at 2.5 h came out at 13.2 ± 2 ×10⁻⁶ cm/s and the “PAMPA prediction of central nervous system (CNS) penetration” value (“PAMPA prediction” below) is “SNC+ (a compound is considered BBB permeable (SNC+) if it has a permeability>4.48×10^−6 cm-s^−1)”. Moreover, the IC50 in data set [3] came to 11200 ± 840 nM.
`N#Cc1cccc(CSc2ncnc3[nH]cnc23)c1` [Compound 3] displayed a melting point of 189 to 191 °C. In addition, the IC50 in data set [1] worked out at 335 nM. In addition, in data set [2], the Papp at 2.5 h was determined as 2.3 ± 0.2 ×10⁻⁶ cm/s and the “PAMPA prediction” value is listed as “SNC+/−”. In data set [3], the IC50 stood at 8380 ± 270 nM.
Consider `FC(F)(F)c1ccccc1CSc1ncnc2[nH]cnc12` [Compound 4, 6-((2-(trifluoromethyl)benzyl)thio)-9H-purine], for which the IC50 in data set [1] amounted to 245 nM. In data set [2], the Papp at 2.5 h was found to be 17.5 ± 0.9 ×10⁻⁶ cm/s and the “PAMPA prediction” value was “SNC+ (a compound is considered BBB permeable (SNC+) if it has a permeability>4.48×10^−6 cm-s^−1)”. Besides, the IC50 in data set [3] amounted to 9730 ± 1030 nM.
Regarding `FC(F)(F)c1cccc(CSc2ncnc3[nH]cnc23)c1` [Compound 7, 6-((3-(trifluoromethyl)benzyl)thio)-9H-purine], the melting point lay in the range of 180 to 182 °C. Further, in data set [2], the Papp at 2.5 h is 16.3 ± 0.6 ×10⁻⁶ cm/s and the “PAMPA prediction” value is “SNC+ (a compound is considered BBB permeable (SNC+) if it has a permeability>4.48×10^−6 cm-s^−1)”. Moreover, the IC50 in data set [3] came to 6900 ± 830 nM.
On to `O=[N+]([O-])c1cccc(CSc2ncnc3[nH]cnc23)c1` [Compound 10, 6-((3-nitrobenzyl)thio)-9H-purine], for which the melting point fell in the range of 193 to 195 °C. Moreover, in data set [2], the Papp at 2.5 h turned out to be 3.9 ± 0.4 ×10⁻⁶ cm/s and the “PAMPA prediction” value is listed as “SNC+/−”. Further, the IC50 in data set [3] stood at 6540 ± 320 nM.
As to `Brc1cccc(CSc2ncnc3[nH]cnc23)c1` [Compound 11, 6-((3-bromobenzyl)thio)-9H-purine], the IC50 in data set [1] came to 138 nM; in data set [3], 5290 ± 710 nM.
As for `Brc1ccc(CSc2[nH]cnc3ncnc2-3)cc1` [Compound 12, 6-((4-bromobenzyl)thio)-9H-purine], in data set [2], the Papp at 2.5 h is 11.5 ± 0.7 ×10⁻⁶ cm/s and the “PAMPA prediction” value was “SNC+ (a compound is considered BBB permeable (SNC+) if it has a permeability>4.48×10^−6 cm-s^−1)”. Further, the IC50 in data set [3] is 9140 ± 790 nM.
The molecule `Clc1ccccc1CSc1ncnc2[nH]cnc12` [Compound 14, 6-((2-Chlorobenzyl)thio)-9H-purine] gave a melting point of 200 to 202 °C. For the same molecule, in data set [1], the IC50 was found to be 92 nM. Further, in data set [2], the Papp at 2.5 h came to 18.1 ± 1.2 ×10⁻⁶ cm/s and the “PAMPA prediction” value was “SNC+ (a compound is considered BBB permeable (SNC+) if it has a permeability>4.48×10^−6 cm-s^−1)”.
In the case of `COc1cccc(CSc2ncnc3[nH]cnc23)c1` [Compound 15, 6-((3-methoxybenzyl)thio)-9H-purine], in data set [2], the Papp at 2.5 h is 5.3 ± 0.8 ×10⁻⁶ cm/s and the “PAMPA prediction” value was “SNC+ (a compound is considered BBB permeable (SNC+) if it has a permeability>4.48×10^−6 cm-s^−1)”.
`CCOC(=O)c1ccccc1CSc1ncnc2[nH]cnc12` [Compound 16, Ethyl 2-(((9H-Purine-6-yl)thio)methyl)benzoate] had a melting point of 145 to 147 °C. For the same molecule, in data set [1], the IC50 came to 2790 nM. In data set [2], the Papp at 2.5 h is 9.7 ± 1.4 ×10⁻⁶ cm/s and the “PAMPA prediction” value is “SNC+ (a compound is considered BBB permeable (SNC+) if it has a permeability>4.48×10^−6 cm-s^−1)”.
For the molecule `O=[N+]([O-])c1ccc(CSc2ncnc3[nH]cnc23)cc1` [Compound 17, 6-((4-nitrobenzyl)thio)-9H-purine], the IC50 in data set [1] stood at 127 nM. In addition, in data set [2], the Papp at 2.5 h was 5.5 ± 1.3 ×10⁻⁶ cm/s and the “PAMPA prediction” value is “SNC+ (a compound is considered BBB permeable (SNC+) if it has a permeability>4.48×10^−6 cm-s^−1)”.
In turn, `CC(=O)Nc1ccc(CSc2ncnc3[nH]cnc23)cc1` [Compound 18, 6-((4-Acetamidobenzyl)thio)-9H-purine] registered a melting point of 223 to 225 °C.
`N#Cc1ccc(CSc2ncnc3[nH]cnc23)cc1` [Compound 19, 6-((4-Cyanobenzyl)thio)-9H-purine] yielded a melting point of 228 to 230 °C. Also, in data set [2], the Papp at 2.5 h is 2 ± 0.7 ×10⁻⁶ cm/s and the “PAMPA prediction” value was “SNC+/−”.
With `c1ccc(COc2[nH]cnc3ncnc2-3)cc1` [Compound 20, 6-((benzyl)oxy)-9H-purine], the IC50 in data set [1] was determined as 167 nM. In addition, in data set [2], the Papp at 2.5 h was 2.9 ± 0.9 ×10⁻⁶ cm/s and the “PAMPA prediction” value was “SNC+/−”.
Turning to `Brc1ccc(COc2ncnc3[nH]cnc23)cc1` [Compound 21, 6-((4-Bromobenzyl)oxy)-9H-purine], in data set [2], the Papp at 2.5 h stood at 14 ± 1.4 ×10⁻⁶ cm/s and the “PAMPA prediction” value was “SNC+ (a compound is considered BBB permeable (SNC+) if it has a permeability>4.48×10^−6 cm-s^−1)”.
Take `FC(F)(F)c1ccc(CSc2ncnc3[nH]cnc23)cc1` [Compound 22, 6-(4-(trifluoromethyl)benzylthio)-9H-purine]: the IC50 in data set [1] amounted to 367 nM. Besides, in data set [2], the Papp at 2.5 h was found to be 13.5 ± 1.6 ×10⁻⁶ cm/s and the “PAMPA prediction” value was “SNC+ (a compound is considered BBB permeable (SNC+) if it has a permeability>4.48×10^−6 cm-s^−1)”.
With `CSc1ccc(CSc2ncnc3[nH]cnc23)cc1` [Compound 23, 6-((4-(Methylthio)benzyl)thio)-9H-purine], the melting point was 203 to 205 °C. The IC50 in data set [1] turned out to be 146 nM. Also, in data set [2], the Papp at 2.5 h was determined as 17.8 ± 0.7 ×10⁻⁶ cm/s and the “PAMPA prediction” value is given as “SNC+ (a compound is considered BBB permeable (SNC+) if it has a permeability>4.48×10^−6 cm-s^−1)”.
